# Tests used:
# Candida glabrata [1] = assay: MIC/MFC broth microdilution (CLSI);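 also: broth microdilution following CLSI M27-Ed4, MFC taken as the lowest drug level yielding no growth once MIC wells were subcultured on SDA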
# Method: (§1) Antifungal susceptibility was determined by broth microdilution according to the CLSI guidelines described in M27-Ed4 ([16]). […] MFC was determined by back-plating drug-treated cultures from MIC broths onto SDA plates. The MFC was defined as the lowest concentration from which no colonies could be cultured.
# Aspergillus flavus [2] = assay: MIC/MFC broth microdilution (CLSI); conditions: ATCC204304
# Method: as §1
# Candida albicans [3] = assay: checkerboard drug interaction (FICI, MICc); assay type: cell-based;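 also: antifungal plus FPPS inhibitor combinations on Candida albicans tested by a simplified diagonal checkerboard screen, with FICI calculated under the Loewe additivity model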
# Method: (§2) Drug interactions between antifungals and FPPS inhibitors were investigated using a simplified checkerboard diagonal screening method ([45]). […] FICIs were determined according to the Loewe additivity model ([17]).
# Cryptococcus neoformans [4] = assay: MIC/MFC broth microdilution (CLSI);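 also: susceptibility testing followed the CLSI M27-Ed4 broth microdilution document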
# Method: as §1
# Candida albicans [5] = assay: MIC/MFC broth microdilution (CLSI); assay type: cell-based; conditions: Candida albicans SC5314
# Method: as §1
# Trichophyton rubrum [6] = assay: checkerboard drug interaction (FICI, MICc); assay type: cell-based;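 also: simplified diagonal checkerboard screen pairing azole antifungals with FPPS inhibitors, FICI calculated under the Loewe additivity model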
# Method: as §2
# [7] = test system: Cryptococcus deuterogattii; assay: MIC/MFC broth microdilution (CLSI);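 also: broth microdilution per CLSI M27-Ed4. MFC is the lowest concentration yielding no colonies when MIC broths are subcultured onto SDA plates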
# Method: as §1
# Cryptococcus neoformans [8] = assay: checkerboard drug interaction (FICI, MICc); assay type: cell-based;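 also: antifungal plus FPPS inhibitor pairs tested against Cryptococcus neoformans by simplified diagonal checkerboard screening, FICI computed under the Loewe additivity model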
# Method: as §2
# Trichophyton rubrum [9] = assay: MIC/MFC broth microdilution (CLSI)
# Method: as §1
# Saccharomyces cerevisiae [10] = assay: checkerboard drug interaction (FICI, MICc); assay type: cell-based;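 also: simplified diagonal checkerboard screen pairing antifungals with FPPS inhibitors, FICI calculated under the Loewe additivity model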
# Method: as §2
# [11] = test system: Cryptococcus deuterogattii; assay: checkerboard drug interaction (FICI, MICc); assay type: cell-based;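 also: simplified diagonal checkerboard screen pairing antifungal drugs with FPPS inhibitors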
# Method: as §2
# Candida tropicalis = assay: checkerboard drug interaction (FICI, MICc); assay type: cell-based;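 also: simplified diagonal checkerboard screen of antifungal plus FPPS inhibitor combinations, with FICI computed by the Loewe additivity model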
# Method: as §2
# Aspergillus fumigatus = assay: checkerboard drug interaction (FICI, MICc); assay type: cell-based;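 also: simplified diagonal checkerboard screen pairing antifungals with FPPS inhibitors against Aspergillus fumigatus, with FICI calculated under the Loewe additivity model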
# Method: as §2
# Candida glabrata [12] = assay: checkerboard drug interaction (FICI, MICc); assay type: cell-based;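 also: simplified diagonal checkerboard screen pairing antifungals with FPPS inhibitors, FICI calculated under the Loewe additivity model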
# Method: as §2
# Saccharomyces cerevisiae [13] = assay: MIC/MFC broth microdilution (CLSI); assay type: cell-based; conditions: Saccharomyces cerevisiae S288c
# Method: as §1
# Aspergillus flavus [14] = assay: checkerboard drug interaction (FICI, MICc); assay type: cell-based;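 also: simplified diagonal checkerboard screen pairing azole antifungals with FPPS inhibitors, FICI calculated under the Loewe additivity model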
# Method: as §2
structure (smiles),measurement,setting,value
"OC(Cn1cncn1)(Cn1cncn1)c1ccc(F)cc1F [FLC, fluconazole]",MIC / MEC,Candida glabrata [1]; Candida glabrata CBS138 (ATCC 2001),4 µg/mL
same,MIC,"Candida glabrata [1]; Nakaseomyces glabratus, CBS138",4 µg/mL
same,MIC,Aspergillus flavus [2],64 µg/mL
same,antifungal MICc,Candida albicans [3]; in combination with 10-ZOL,1
same,antifungal MICc,Candida albicans [3]; in combination with ZOL,2
same,MIC,Cryptococcus neoformans [4]; Cryptococcus neoformans,2 µg/mL
same,MIC / MEC,Cryptococcus neoformans [4]; Cryptococcus neoformans H99,4 µg/mL
same,MFC,Candida albicans [5],4 µg/mL
same,MIC,Candida albicans [5],0.5 µg/mL
same,MIC / MEC,Candida albicans [5],0.5 µg/mL
same,antifungal MICc,Trichophyton rubrum [6]; in combination with 10-ZOL,8
same,antifungal MICc,Trichophyton rubrum [6]; in combination with ZOL,16
same,MIC,[7]; Cryptococcus deuterogattii,2 µg/mL
same,MIC / MEC,[7]; Cryptococcus deuterogattii R265,4 µg/mL
same,antifungal MICc,Cryptococcus neoformans [8]; in combination with 10-ZOL,2
same,antifungal MICc,Cryptococcus neoformans [8]; in combination with ZOL,4
same,MIC,Trichophyton rubrum [9]; Trichophyton rubrum,64 µg/mL
same,MIC / MEC,Trichophyton rubrum [9]; Trichophyton rubrum R-218,64 µg/mL
same,antifungal MICc,Saccharomyces cerevisiae [10]; in combination with 10-ZOL,1
same,antifungal MICc,Saccharomyces cerevisiae [10]; in combination with ZOL,1
same,antifungal MICc,[11]; in combination with 10-ZOL,2
same,antifungal MICc,[11]; in combination with ZOL,4
same,antifungal MICc,Candida tropicalis; in combination with 10-ZOL,1
same,antifungal MICc,Candida tropicalis; in combination with ZOL,2
same,effective concentration in combination,"Aspergillus fumigatus; FLC with 10-ZOL added, A. fumigatus",8 µg/mL
same,antifungal MICc,Aspergillus fumigatus; in combination with 10-ZOL,8
same,antifungal MICc,Aspergillus fumigatus; in combination with ZOL,64
same,antifungal MICc,Candida glabrata [12]; in combination with 10-ZOL,1
same,antifungal MICc,Candida glabrata [12]; in combination with ZOL,0.25
same,MFC,Saccharomyces cerevisiae [13],64 µg/mL
same,MIC,Saccharomyces cerevisiae [13],4 µg/mL
same,MIC / MEC,Saccharomyces cerevisiae [13],4 µg/mL
same,antifungal MICc,Aspergillus flavus [14]; in combination with 10-ZOL,32
same,antifungal MICc,Aspergillus flavus [14]; in combination with ZOL,64
